Experimental data from BindingDB's records for doi:10.1021/jm950507y (Glaxo Wellcome Research Institute, 1996).

Test: Average concentration of compound to cause 50% inhibition of topoisomerase-1 isolated from calf thymus

SMILES	IC50 [nM]
CC[C@@]1(O)C(=O)OCc2c1cc1n(c2=O)Cc2c-1nc1cc3c(cc1c2C[n+]1ccccc1)OCCO3 [8-ethyl-8-hydroxy-15-(1-pyridiniumylmethyl)-(8S)-2,3,8,9,12,14-hexahydro-11H-[1,4]dioxino[3,2-g]pyrano[3',4':6,7]indolizino[1,2-b]quinoline-9,12-dione]	190
CC[C@@]1(O)C(=O)OCc2c1cc1n(c2=O)Cc2c-1nc1cc3c(cc1c2C[n+]1ccncc1)OCCO3 [8-ethyl-8-hydroxy-15-pyrazin-1-ium-1-ylmethyl-(8S)-2,3,8,9,12,14-hexahydro-11H-[1,4]dioxino[3,2-g]pyrano[3',4':6,7]indolizino[1,2-b]quinoline-9,12-dione]	180
